Values joined by “and” are separate entries in the source; they are usually repeats but may differ in a detail not shown here. Equal entries are not always repeated. Inconclusive results and toxic doses are left out. Rule as the data show it: active = T/C of 150% or more; inactive = T/C below 125%.
Test system: L1210 leukemia ip in BDF1 mice, survival T/C
Assay: NCI In Vivo Anticancer Drug Screen. Data for tumor model L1210 Leukemia (intraperitoneal) in B6D2F1 (BDF1) mice
Conditions: endpoint: mean survival time, higher = longer survival
In short: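 Antitumor effect is assessed in tumor-bearing animals. Survival in the compound arm is compared with a vehicle-dosed control arm and expressed as their quotient.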

[1] = dose: 25.0 mg/kg/injection, schedule: Q04DX003 (ip), vehicle: saline
[2] = dose: 50.0 mg/kg/injection, schedule: Q04DX003 (ip), vehicle: saline
[3] = dose: 100.0 mg/kg/injection, schedule: Q04DX002 (ip), vehicle: Klucel (hydroxypropylcellulose) (HPC)
[4] = dose: 200.0 mg/kg/injection, schedule: Q04DX002 (ip), vehicle: Klucel (hydroxypropylcellulose) (HPC)
[5] = dose: 100.0 mg/kg/injection, schedule: Q01DX001 (ip), vehicle: saline
[6] = dose: 100.0 mg/kg/injection, schedule: Q04DX003 (ip), vehicle: saline with Tween-80
[7] = dose: 200.0 mg/kg/injection, schedule: Q01DX001 (ip), vehicle: saline
[8] = dose: 200.0 mg/kg/injection, schedule: Q04DX003 (ip), vehicle: saline with Tween-80
[9] = dose: 400.0 mg/kg/injection, schedule: Q01DX001 (ip), vehicle: saline
[10] = dose: 400.0 mg/kg/injection, schedule: Q04DX003 (ip), vehicle: saline with Tween-80
[11] = dose: 100.0 mg/kg/injection, schedule: Q01DX001 (ip), vehicle: Klucel (hydroxypropylcellulose) (HPC)
[12] = dose: 200.0 mg/kg/injection, schedule: Q01DX001 (ip), vehicle: Klucel (hydroxypropylcellulose) (HPC)
[13] = dose: 400.0 mg/kg/injection, schedule: Q01DX001 (ip), vehicle: Klucel (hydroxypropylcellulose) (HPC)

Measured: T/C

Nc1nc2ncc(CCNc3ccc(C(=O)NC(CCC(=O)O)C(=O)O)cc3)nc2c(=O)[nH]1 (centres undefined)
inactive: dose: 18.75 mg/kg/injection, schedule: Q01DX001 (ip), vehicle: other 96 % of control | dose: 18.75 mg/kg/injection, schedule: Q01DX Z (ip), vehicle: other 103 % of control | dose: 37.5 mg/kg/injection, schedule: Q01DX001 (ip), vehicle: other 97 % of control | dose: 37.5 mg/kg/injection, schedule: Q01DX Z (ip), vehicle: other 102 % of control | dose: 75.0 mg/kg/injection, schedule: Q01DX001 (ip), vehicle: other 104 % of control | dose: 75.0 mg/kg/injection, schedule: Q01DX Z (ip), vehicle: other 112 % of control | dose: 150.0 mg/kg/injection, schedule: Q01DX001 (ip), vehicle: other 119 % of control

CCCCCCCC(=O)NOS(=O)(=O)O
inactive: dose: 25.0 mg/kg/injection, schedule: Q01DX001 (ip), vehicle: saline 101 % of control | dose: 25.0 mg/kg/injection, schedule: Q01DX009 (ip), vehicle: saline 91 % of control | [1] 100 % of control | dose: 50.0 mg/kg/injection, schedule: Q01DX001 (ip), vehicle: saline 97 % of control | dose: 50.0 mg/kg/injection, schedule: Q01DX009 (ip), vehicle: saline 88 % of control | [2] 95 % of control | dose: 100.0 mg/kg/injection, schedule: Q04DX003 (ip), vehicle: saline 95 % of control

Cc1ccc2c(Br)cc(Br)c(O)c2n1
inactive: dose: 25.0 mg/kg/injection, schedule: Q01DX009 (ip), vehicle: Klucel (hydroxypropylcellulose) (HPC) 94 % of control | dose: 50.0 mg/kg/injection, schedule: Q01DX009 (ip), vehicle: Klucel (hydroxypropylcellulose) (HPC) 96 % of control | dose: 100.0 mg/kg/injection, schedule: Q01DX009 (ip), vehicle: Klucel (hydroxypropylcellulose) (HPC) 97 % of control and 89 % of control | dose: 100.0 mg/kg/injection, schedule: Q04DX003 (ip), vehicle: Klucel (hydroxypropylcellulose) (HPC) 97 % of control | dose: 200.0 mg/kg/injection, schedule: Q04DX003 (ip), vehicle: Klucel (hydroxypropylcellulose) (HPC) 112 % of control | dose: 400.0 mg/kg/injection, schedule: Q04DX003 (ip), vehicle: Klucel (hydroxypropylcellulose) (HPC) 98 % of control

C[C@]12CC[C@H]3[C@@H](CC=C4C[C@@H](O)CC[C@@]43C)[C@@H]1CC[C@@H]2N
inactive: dose: 100.0 mg/kg/injection, schedule: Q01DX001 (sc), vehicle: steriod suspending solution 98 % of control | dose: 100.0 mg/kg/injection, schedule: Q04DX002 (ip), vehicle: saline with Tween-80 105 % of control | dose: 200.0 mg/kg/injection, schedule: Q01DX001 (sc), vehicle: steriod suspending solution 101 % of control | dose: 200.0 mg/kg/injection, schedule: Q04DX002 (ip), vehicle: saline with Tween-80 112 % of control | dose: 400.0 mg/kg/injection, schedule: Q01DX001 (sc), vehicle: steriod suspending solution 101 % of control | dose: 400.0 mg/kg/injection, schedule: Q04DX002 (ip), vehicle: saline with Tween-80 118 % of control

CN(C)Cc1ccccc1COC(=O)/C=C/c1ccccc1
inactive: dose: 50.0 mg/kg/injection, schedule: Q04DX002 (ip), vehicle: Klucel (hydroxypropylcellulose) (HPC) 101 % of control | [3] 94 % of control | [4] 97 % of control

N/N=C(/C(=O)c1ccccc1)c1ccccc1
inactive: [5] 102 % of control | [6] 100 % of control | [7] 96 % of control | [8] 95 % of control | [9] 96 % of control | [10] 100 % of control

CN(c1ccccc1)S(=O)(=O)c1ccccc1
inactive: dose: 100.0 mg/kg/injection, schedule: Q01DX009 (ip), vehicle: saline with Tween-80 100 % of control | [6] 97 % of control | dose: 200.0 mg/kg/injection, schedule: Q01DX009 (ip), vehicle: saline with Tween-80 106 % of control | [8] 97 % of control | dose: 400.0 mg/kg/injection, schedule: Q01DX009 (ip), vehicle: saline with Tween-80 90 % of control | [10] 92 % of control

COc1cc2cc3c4cc(OC)c(OC)cc4cc[n+]3c(/C=C/c3ccc(Cl)cc3)c2cc1OC
inactive: dose: 100.0 mg/kg/injection, schedule: Q01DX001 (ip), vehicle: carboxymethylcellulose (CMC) 93 % of control and 99 % of control | dose: 100.0 mg/kg/injection, schedule: Q04DX002 (ip), vehicle: carboxymethylcellulose (CMC) 102 % of control and 103 % of control | dose: 100.0 mg/kg/injection, schedule: Q04DX003 (ip), vehicle: carboxymethylcellulose (CMC) 100 % of control and 103 % of control | dose: 200.0 mg/kg/injection, schedule: Q01DX001 (ip), vehicle: carboxymethylcellulose (CMC) 99 % of control and 114 % of control | dose: 200.0 mg/kg/injection, schedule: Q04DX002 (ip), vehicle: carboxymethylcellulose (CMC) 94 % of control and 105 % of control | dose: 200.0 mg/kg/injection, schedule: Q04DX003 (ip), vehicle: carboxymethylcellulose (CMC) 95 % of control and 117 % of control | dose: 400.0 mg/kg/injection, schedule: Q01DX001 (ip), vehicle: carboxymethylcellulose (CMC) 94 % of control and 111 % of control | dose: 400.0 mg/kg/injection, schedule: Q04DX002 (ip), vehicle: carboxymethylcellulose (CMC) 102 % of control and 113 % of control | dose: 400.0 mg/kg/injection, schedule: Q04DX003 (ip), vehicle: carboxymethylcellulose (CMC) 100 % of control and 92 % of control

CCCN1CCN(CCO)CC1C (centres undefined)
inactive: [5] 98 % of control | [7] 101 % of control | [9] 98 % of control

CC(=O)Nc1ccc(C)c2ccccc12
inactive: dose: 50.0 mg/kg/injection, schedule: Q04DX003 (ip), vehicle: saline with Tween-80 116 % of control | [6] 100 % of control | [8] 100 % of control | [10] 96 % of control

COc1ccc2c3c(ccc2c1)C1=C(C(=O)O)CC(=O)C1(C)CC3 (centres undefined)
inactive: dose: 100.0 mg/kg/injection, schedule: Q01DX009 (sc), vehicle: steriod suspending solution 114 % of control | dose: 100.0 mg/kg/injection, schedule: Q04DX003 (sc), vehicle: steriod suspending solution 117 % of control | dose: 200.0 mg/kg/injection, schedule: Q01DX009 (sc), vehicle: steriod suspending solution 101 % of control | dose: 200.0 mg/kg/injection, schedule: Q04DX003 (sc), vehicle: steriod suspending solution 97 % of control | dose: 400.0 mg/kg/injection, schedule: Q01DX009 (sc), vehicle: steriod suspending solution 95 % of control | dose: 400.0 mg/kg/injection, schedule: Q04DX003 (sc), vehicle: steriod suspending solution 101 % of control

N/C(=N\c1nc(-c2ccccc2)cc(-c2ccccc2O)n1)N1CCOCC1
inactive: [3] 98 % of control | [4] 98 % of control | dose: 400.0 mg/kg/injection, schedule: Q04DX002 (ip), vehicle: Klucel (hydroxypropylcellulose) (HPC) 95 % of control

OB(O)C1=CC(c2ccccc2)(c2ccccc2)N=C1
inactive: [11] 103 % of control | [12] 94 % of control | [13] 92 % of control

NC(=S)c1cccc(S(N)(=O)=O)c1
inactive: [11] 100 % of control | [12] 103 % of control | [13] 103 % of control

OCCCN1CCN(CCCC2c3ccccc3Sc3ccc(Cl)cc32)CC1 (centres undefined)
inactive: [1] 102 % of control | [2] 109 % of control

From PubChem BioAssay AID248 (DTP/NCI, 2004)
